Reference: patent US8044050B2, “Imidazo[1,2-a]azines and their use as pharmaceuticals” (Sanofi-Aventis, priority 2007, dated 2011)

Tested on: eNOS promoter
Test: Activation of eNOS transcription (eNOS promoter-luciferase reporter gene assay)
Type: cell-based
Conditions: human endothelial cell line stably transfected with eNOS promoter-luciferase construct; 18 h incubation; determined graphically; read-out: EC50 values of transcription induction ratios (TIR)
Procedure: Activation of eNOS transcription was measured as described in detail by Li et al., “Activation of protein kinase C alpha and/or epsilon enhances transcription of the human endothelial nitric oxide synthase gene”, Mol. Pharmacol. 53 (1998) 630. Briefly, a 3.5 kB long fragment 5′ of the starting codon of the eNOS gene was cloned, sequenced and cloned in firefly luciferase expression plasmids to monitor activation of the eNOS promoter by reporter gene activity. A human endothelial cell line stable transfected and expressing this promoter-reporter construct was used for compound testing. Cells were incubated for 18 h with the compounds.
All compounds were dissolved in sterile dimethyl sulfoxide (DMSO). A final concentration of 0.5% DMSO in complete medium was allowed. Induction of reporter gene expression in these cells was measured using a standard luciferase assay system (Promega, Cat. No. E150) according to the manufacturer's instructions. Luciferase induction in cells incubated with compounds were compared to those incubated with solvent alone. The ratio of both activities (transcription induction ratio, TIR) was plotted as a function of compound concentration. […] EC50 values of transcription induction ratios as a function of compound concentration were determined graphically.

Compound	EC50 [nM]
Nc1ccc2nc(-c3ccc(F)cc3)cn2n1 [Example 7, 2-(4-Fluoro-phenyl)-imidazo[1,2-b]pyridazin-6-ylamine]	< 500
Fc1ccc(-c2cn3nc(Cl)ccc3n2)cc1 [Example 8, 6-Chloro-2-(4-fluoro-phenyl)-imidazo[1,2-b]pyridazine]	< 500
